In patent publication EP4271680B1, “GOLD (I) COMPLEXES WITH FLUORINATED N-HETEROCYCLIC CARBENE LIGANDS AND USE THEREOF AS THERAPEUTIC AGENTS” (priority 2020, dated 2022):
Like-named read-outs stand apart in the source and are kept apart here.

Assays:
[1] = tested on: amastigotes axéniques de L. infantum; experiment: Anti-leishmanial activity on axenic amastigotes of L. infantum (luciferase luminescence)
lignée cellulaire Thp1 = experiment: Cytotoxicity by MTT test on Thp1 cell line; type: cell-based, humains
Description: (§1) L'évaluation de la cytotoxicité des complexes selon l'invention par test MTT sur la lignée cellulaire Thp1 (lignée cellulaire de monocytes humains) a été réalisée selon Mosmann avec de légères modifications. En bref, les cellules (0,77.10^5 cellules/ml) dans 200 µL du milieu complet [RPMI 1640 supplémenté avec 10% de sérum de veau fœtal (FCS), 2 mM de L-glutamine et des antibiotiques (100 U/ml) pénicilline et 100 µg/ml de streptomycine)]+ PMA (50 ng/ml) ont été ensemencées dans chaque puits de plaques à 96 puits et incubées à 37°C sous atmosphère humidifiée à 5% de CO2 avec 95% d'air. Après une incubation de 96 h, les plaques ont été lavées 3 fois avec du milieu et 100 µl de milieu ont été ajoutés. Diverses concentrations et contrôles appropriés ont ensuite été ajoutés (100 µl) et les plaques ont été incubées pendant 72 h à 37°C.
(§2) Chaque puits a ensuite été examiné au microscope pour détecter la formation possible de précipité avant l'aspiration du milieu. Une solution de MTT (0,5 mg/ml dans du RPMI, 100 µl) a ensuite été ajoutée à chaque puits. Les cellules ont été incubées pendant 2 h à 37°C. La solution de MTT a ensuite été éliminée et du DMSO (100 µl) a été ajouté pour dissoudre les cristaux de formazan résultants. Les plaques ont été secouées vigoureusement (300 tr/min) pendant 5 min.
(§3) L'absorbance a été mesurée à 570 nm avec un spectrophotomètre pour microplaques. Le DMSO a été utilisé comme blanc et la doxorubicine (Sigma Aldrich) comme contrôle positif. Les CC50 ont été calculés par analyse de régression non linéaire traitée sur des courbes dose-réponse, à l'aide du logiciel TableCurve 2D V5.

[2] = Cytotoxicity by MTT test on Thp1 cell line; type: cell-based, humains; conditions: human
Description: as §1, §2, §3

[3] = Leishmania infantum, read-out: Amastigotes axéniques de L. infantum CI50, Tableau 2, mean of three independent experiments
[4] = Leishmania infantum, read-out: Amastigotes axéniques de L. infantum CI50, Tableau 3, separate experiments, mean of three independent experiments
[5] = Tableau 2, CC50 Thp1 / CI50 axenic amastigotes of L. infantum
[6] = Tableau 3, separate experiments, CC50 Thp1 / CI50 axenic amastigotes
[7] = Tableau 3, separate experiments, mean of three independent experiments, read-out: Thp1 CC50
[8] = read-out: CC50 sur la lignée cellulaire humaine Thp1
[9] = Tableau 2, 72 h incubation, mean of three independent experiments, read-out: Thp1 CC50
[10] = Leishmania infantum, read-out: Amastigotes axéniques de L. infantum CI50

Row | SMILES | Indice de sélectivité CC50/IC50 SI [1, 5] | IC50 [1, 10] [µM] | further results
1 | C[C@@H]1[C@H](O)[C@@H](C)/C=C/C=C/C=C/C=C/C=C/C=C/C=C/[C@H](O[C@@H]2O[C@H](C)[C@@H](O)[C@H](N)[C@@H]2O)C[C@@H]2O[C@](O)(C[C@@H](O)C[C@@H](O)[C@H](O)CC[C@@H](O)C[C@@H](O)CC(=O)O[C@H]1C)C[C@H](O)[C@H]2C(=O)O [Amphotéricine B, reference compound] | 139,87 |  | IC50 [1, 3]: 0.075 µM; IC50 [1, 4]: 0.06 µM; Indice de sélectivité CC50/IC50 SI [1, 6]: 218,83; CC50 (lignée cellulaire Thp1; [7]): 13.1 µM; CC50 (lignée cellulaire Thp1; [8]): 10.5 µM
2 | FC(F)(F)Oc1ccc(-n2cc[n+](Cc3ccccc3)[c]2[Au-][Cl])cc1 [Complexe 21] | 67,85 |  | 
3 | FC(F)(F)c1cc(-n2cc[n+](Cc3ccccc3)[c]2[Au-][Cl])cc(C(F)(F)F)c1 [Complexe 22] | 47,09 |  | 
4 | FC(F)(F)Oc1cccc(-n2cc[n+](Cc3ccccc3)[c]2[Au-][Cl])c1 [Complexe 23] | 62,55 |  | 
5 | CC(C)[n+]1ccn(-c2ccc(OC(F)(F)F)cc2)[c]1[Au-][Cl] [Complexe 26] | 118,53 |  | 
6 | CC(C)[n+]1ccn(-c2cc(C(F)(F)F)cc(C(F)(F)F)c2)[c]1[Au-][Cl] [Complexe 27] | 119,72 |  | 
7 | CC(C)[n+]1ccn(-c2cccc(OC(F)(F)F)c2)[c]1[Au-][Cl] [Complexe 28] | 178.52 |  | 
8 | CC(C)[n+]1ccn(-c2ccc(F)cc2)[c]1[Au-][Cl] [Complexe 29] | 178,50 |  | 
9 | FC(F)(F)Oc1ccc(-n2cc[n+](-c3ccc4ccccc4n3)[c]2[Au-][Cl])cc1 [Complexe 31] | 136,42 |  | 
10 | FC(F)(F)Oc1cccc(-n2cc[n+](-c3ccc4ccccc4n3)[c]2[Au-][Cl])c1 [Complexe 33] | 129,70 |  | 
11 | Fc1ccc(-n2cc[n+](-c3ccc4ccccc4n3)[c]2[Au-][Cl])cc1 [Complexe 34] | 474,17 |  | 
12 | FC(F)(F)c1ccc(-n2cc[n+](-c3ccc4ccccc4n3)[c]2[Au-][Cl])cc1 [Complexe 35] | 130,05 |  | 
13 | CC(=O)OCC1OC([S][Au-][c]2n(-c3ccc(OC(F)(F)F)cc3)cc[n+]2Cc2ccccc2)C(OC(C)=O)C(OC(C)=O)C1OC(C)=O (centres unmarked) [Complexe 36] | 53,92 |  | 
14 | CC(=O)OCC1OC([S][Au-][c]2n(-c3cc(C(F)(F)F)cc(C(F)(F)F)c3)cc[n+]2Cc2ccccc2)C(OC(C)=O)C(OC(C)=O)C1OC(C)=O (centres unmarked) [Complexe 37] | 30,63 |  | 
15 | CC(=O)OCC1OC([S][Au-][c]2n(-c3cccc(OC(F)(F)F)c3)cc[n+]2Cc2ccccc2)C(OC(C)=O)C(OC(C)=O)C1OC(C)=O (centres unmarked) [Complexe 38] | 23,15 |  | 
16 | CC(=O)OCC1OC([S][Au-][c]2n(-c3cc(C(F)(F)F)cc(C(F)(F)F)c3)cc[n+]2C(C)C)C(OC(C)=O)C(OC(C)=O)C1OC(C)=O (centres unmarked) [Complexe 39] | 18,79 |  | 
17 | CC(=O)OCC1OC([S][Au-][c]2n(-c3ccc(F)cc3)cc[n+]2C(C)C)C(OC(C)=O)C(OC(C)=O)C1OC(C)=O (centres unmarked) [Complexe 40] | 13.43 |  | 
18 | COc1cccc2c1C(=O)c1c(O)c3c(c(O)c1C2=O)C[C@@](O)(C(=O)CO)C[C@@H]3O[C@H]1C[C@H](N)[C@H](O)[C@H](C)O1 [Doxorubicine] |  |  | CC50 at 72 h [2, 9]: 0.7 µM; CC50 at 72 h [2, 7]: 0.7 µM

Row | SMILES | Indice de sélectivité CC50/IC50 SI [1, 5] | IC50 [1, 10] [µM] | further results
19 | CSc1ccc(OCc2ncc([N+](=O)[O-])n2C)cc1 [Fexinidazole, reference compound] | >104,41 | 3.4 | Indice de sélectivité CC50/IC50 SI ([1]; Tableau 2, CC50 Thp1 / CI50 axenic amastigotes of L. infantum, listed as fexinidazole): > 104,41; CC50 at 72 h [2, 9]: > 355 µM; CC50 at 72 h [2, 8]: > 355 µM
20 | CCCCCCCCCCCCCCCCOP(=O)([O-])OCC[N+](C)(C)C [Miltéfosine, reference compound] | 49,32 |  | IC50 [1, 3]: 0.71 µM; IC50 [1, 4]: 0.46 µM; Indice de sélectivité CC50/IC50 SI ([1]; Tableau 2, CC50 Thp1 / CI50 axenic amastigotes of L. infantum, listed as miltéfosine): 53,06; Indice de sélectivité CC50/IC50 SI [1, 6]: 76,13; CC50 (lignée cellulaire Thp1; [7]): 35 µM; CC50 (lignée cellulaire Thp1; [8]): 35 µM
21 | N=C(N)c1ccc(OCCCCCOc2ccc(C(=N)N)cc2)cc1 [Pentamidine, reference compound] | >4,74 |  | IC50 [1, 3]: 10.5 µM; IC50 [1, 4]: 1.36 µM; Indice de sélectivité CC50/IC50 SI ([1]; Tableau 2, CC50 Thp1 / CI50 axenic amastigotes of L. infantum, listed as pentamidine): > 4,74; Indice de sélectivité CC50/IC50 SI [1, 6]: 48.43; CC50 at 72 h [2, 9]: > 50 µM; CC50 at 72 h [2, 7]: 65.9 ± 7.49 µM; CC50 at 72 h [2, 8]: > 50 µM
22 | FC(F)(F)Oc1ccc(-n2cc[n+](Cc3ccccc3)c2)cc1 [compound 6, Chlorurede 3-Benzyl-1-(4-(trifluorométhoxy)phényl)-1H-imidazol-3-ium] |  | > 50 | 
23 | FC(F)(F)c1cc(-n2cc[n+](Cc3ccccc3)c2)cc(C(F)(F)F)c1 [compound 7, Chlorurede 3-Benzyl-1-(3,5-bis(trifluoromethyl)phenyl)-1H-imidazol-3-ium] |  |  | IC50 ([1]; read-out: Amastigotes axéniques de L. infantum CI50, Tableau 2, mean of three independent experiments): > 50 µM
24 | FC(F)(F)Oc1cccc(-n2cc[n+](Cc3ccccc3)c2)c1 [compound 8, Chlorurede 3-Benzyl-1-(3-(trifluoromethoxy)phenyl)-1H-imidazol-3-ium chloride] |  | > 50 | 
25 | Fc1ccc(-n2cc[n+](Cc3ccccc3)c2)cc1 [compound 9, Chlorurede 3-Benzyl-1-(4-fluorophenyl)-1H-imidazol-3-ium chloride] |  | > 50 | 
26 | FC(F)(F)c1ccc(-n2cc[n+](Cc3ccccc3)c2)cc1 [compound 10, Chlorurede 3-Benzyl-1-(4-(trifluoromethyl)phenyl)-1H-imidazol-3-ium chloride] |  | > 50 | 
27 | CC(C)[n+]1ccn(-c2ccc(OC(F)(F)F)cc2)c1 [compound 11, Bromurede 3-Isopropyl-1-(4-(trifluorométhoxy)phényl)-1H-imidazol-3-ium] |  | > 50 | 
28 | CC(C)[n+]1ccn(-c2cc(C(F)(F)F)cc(C(F)(F)F)c2)c1 [compound 12, Bromurede 1-(3,5-Bis(trifluorométhyl)phényl)-3-isopropyl-1H-imidazol-3-ium] |  | > 50 | 
29 | CC(C)[n+]1ccn(-c2cccc(OC(F)(F)F)c2)c1 [compound 13, Bromurede 3-Isopropyl-1-(3-(trifluorométhoxy)phényl)-1H-imidazol-3-ium] |  | > 50 | 
30 | CC(C)[n+]1ccn(-c2ccc(F)cc2)c1 [compound 14, Bromurede 1-(4-Fluorophényl)-3-isopropyl-1H-imidazol-3-ium] |  | > 50 | 
31 | CC(C)[n+]1ccn(-c2ccc(C(F)(F)F)cc2)c1 [compound 15, Bromurede 3-Isopropyl-1-(4-(trifluoromethyl)phenyl)-1H-imidazol-3-ium] |  | > 50 | 
32 | FC(F)(F)Oc1ccc(-n2cc[n+](-c3ccc4ccccc4n3)c2)cc1 [compound 16, Chlorurede 3-(Quinolin-2-yl)-1-(4-(trifluoromethoxy)phenyl)-1H-imidazol-3-ium] |  | > 50 | 
33 | FC(F)(F)c1cc(-n2cc[n+](-c3ccc4ccccc4n3)c2)cc(C(F)(F)F)c1 [compound 17, Chlorurede 1-(3,5-Bis(trifluoromethyl)phenyl)-3-(quinolin-2-yl)-1H-imidazol-3-ium] | 3,07 |  | IC50 [1, 3]: 14.5 µM; activité anti-leishmanienne (in words) ([1]; axenic amastigotes of L. infantum): modérément actif; toxicité (in words) (lignée cellulaire Thp1): plutôt toxique
34 | FC(F)(F)Oc1cccc(-n2cc[n+](-c3ccc4ccccc4n3)c2)c1 [compound 18, Chlorurede 3-(Quinolin-2-yl)-1-(3-(trifluoromethoxy)phenyl)-1H-imidazol-3-ium] |  | > 50 | 
35 | Fc1ccc(-n2cc[n+](-c3ccc4ccccc4n3)c2)cc1 [compound 19, Chlorurede 1-(4-Fluorophenyl)-3-(quinolin-2-yl)-1H-imidazol-3-ium] |  | > 50 | 
36 | FC(F)(F)c1ccc(-n2cc[n+](-c3ccc4ccccc4n3)c2)cc1 [compound 20] |  | > 50 | 
